According to patent US5231082A, “Cyclic peptide with anti-metastasis activity” (Monsanto Company, priority 1989, dated 1993):
Peptide text beside a SMILES is read from it.

What was measured:
67 kd laminin receptor = assay: Laminin receptor binding / elution from laminin affinity columns
B16F10 melanoma cells = assay: Lung tumor colonization assay; type: in vivo, mice
Description: B16F10 melanoma cells, obtained from I.J. Fidler, M.D., Anderson Hospital, Houston, TX, are propagated under standard culture conditions. The lung tumor colonization assay is carried out as described in Fidler, I.J., Nature (London) (New Biol.) 242:148 (1973). Peptides are dissolved at 5 mg/mL in PBS and are filter-sterilized. The suspension of B16F10 cells (5×10^5) in 0.1 mL of DMEM is mixed with 0.1 mL of the peptide (or .1 ml PBS in control), incubated for 5 minutes at room temperature, and then injected into the tail vein of syngeneic C57BL/6 female mice (Jackson Labs., Bar Harbor, Me.) at 6 weeks of age. Each treatment and control group consists of eight mice. Three weeks after the injections, the mice are killed and the number of pulmonary tumors on the surface of the lungs counted.

HT-1080 cells = assay: In vitro cell attachment assays; type: cell-based, human
Description: HT-1080 cells from a human fibrosarcoma (Rasheed, S. et al., Cancer (Philadelphia) 33:1027 (1974) are maintained in Dulbecco's modified Eagle's medium (DMEM) supplemented with 10% fetal calf serum. After the cells are grown to 80% confluency, they are washed with 0.02M phosphate buffer, pH 7.4, without CA^+2 and Mg^+2 and detached with a solution of 0.025% trypsin plus 0.025% ethylenediaminetetraacetic acid (EDTA; GIBCO). The cells are then pelleted by low speed centrifugation and resuspended in Eagle's minimal essential medium (EMEM) containing 0.02% bovine serum albumin (BSA, Sigma Chemical Co., St. Louis, Mo.). Cell attachment assays are performed as described in Klebe, R.J. Nature (London) 250:248 (1974), on tissue culture plastic substrates by using 16-mm Falcon tissue culture wells (Fisher Scientific Co., Pittsburg, Pa.) incubated with various peptides or with laminin in lmL of EMEM containing 0.02% BSA for 1 or 2 hours at 37° C. Cells (10^5 in 0.1 mL) are added to the wells, and the solution is incubated for an additional 1 hour at 37° C. in 95% air and 5% CO2. Subsequently, the wells are rinsed 3 times with lmL of phosphate-buffered saline (PBS) to remove unattached cells. Attached cells are trypsinized and counted electronically (Coulter, ZBI). […]

binding of laminin receptor (67 kd laminin receptor; 67 kd laminin receptor): binds the 67 kd laminin receptor
SMILES: CC[C@H](C)[C@@H]1NC(=O)[C@H](Cc2ccc(O)cc2)NC(=O)[C@@H](CCCNC(=N)N)NC(=O)[C@H](CO)NC(=O)CNC1=O [cyclic peptide of the invention] (HELM PEPTIDE1{G.S.[dR].Y.I}$PEPTIDE1,PEPTIDE1,1:R1-5:R2$$$V2.0)
elution of laminin receptor from laminin affinity columns (67 kd laminin receptor): elutes the laminin receptor from laminin affinity columns
in vivo antimetastatic effectiveness (number of pulmonary tumors on the surface of the lungs) (B16F10 melanoma cells; B16F10 cells mixed with peptide, injected into tail vein of C57BL/6 female mice, counted three weeks after injection, compared with linear YIGSR-NH2, FIG. 2): at least twice as effective as linear YIGSR-NH2
melanoma cell colonization (B16F10 melanoma cells; summary statement): blocks
affinity for cell adhesion (HT-1080 cells; HT-1080 cells, compared with the straight chain peptide, FIG. 1): higher affinity for cell adhesion than the straight chain peptide
blocking of cell adhesion and laminin-mediated adhesion (HT-1080 cells; summary statement): blocks cell adhesion, laminin-mediated adhesion
